The source of these data is US20180311297A1, “PHARMACEUTICAL COMPOSITION FOR INCREASING CONTENT AND AVAILABILITY OF CYCLIC ADENOSINE MONOPHOSPHATE IN A BODY AND PREPARATION THEREOF” (priority 2012, published 2018).

One data set relates to depression patients. The note with it: STAR*D study, over 2800 depression patients; cited from earlier work.
In a further data set the test system is cAMP. Nature of the data set: level of cAMP in hippocampus of normal rats 8 hours after administration (ELISA). The following applies: 8 hours after intragastric 5 mg/kg (positive control drug). The format is in vivo, rat. The method, then:
8 hours after normal rats were intragastrically administered with the pharmaceutical of Embodiment 1, their hippocampi were taken out. The variations in the levels of cAMP and phospho-CREB (p-CREB) in the hippocampus were determined using enzyme-linked immunosorbent assay (ELISA), the variations on the activities of the cAMP-dependent PKA were determined using bioluminescent assay, and the variations in the activities of PDE were determined using a fluorescence method. […] The experimental data were statistically analyzed and plotted using Origin […].5 software. 2. […] The sample was determined using the ParameterTM Cyclic AMP Assay ELISA kit (R&D Systems, Inc., U.S.). The sample was defrosted to room temperature, and the level of cAMP in the sample was determined using competitive ELISA. The value of optical density (OD) of the sample was determined at 450 nm using the multi-mode microplate reader, and the level of cAMP in the sample was calculated according to the standard curve. 5.1 The level of cAMP in the rat's hippocampus: The cAMP concentration in the homogenate of the rat's hippocampus was determined using the ELISA assay, and the level of cAMP contained in the hippocampus tissue was obtained by dividing the […], and is presented as pmol/g tissue (referring to FIG. 5).

Data set [1] has as its system olfactory bulb lesion model rats. Nature of the data set: olfactory bulb lesion experiment: open field box test. Format: in vivo, rat. The following applies: 24 consecutive days, high dose of Embodiment 1 (60 mg/kg/d) or Paroxetine of 3 mg/kg/d, compared to control group. An excerpt: The inventor conducted animal behavior experiments, including the tail-hang experiment on mice, the forced-swim experiment on rats, the forced-swim experiment on mice, the unpredictable long-term stimulus experiment on rats, the olfactory bulb lesion experiment on rats and others, according to the pathogenetic mechanism and clinical symptoms of depression. 1.3 The pharmaceutical composition of Embodiment 1 was intragastrically administered to olfactory bulb lesion model rats with the dose of 15 mg/kg/d, 30 mg/kg/d and 60 mg/kg/d for 24 consecutive days.

Data set [2] concerns unpredictably long-term stressed rats. Nature of the data set: unpredictable long-term stimulus (CUMS) experiment on rats: sucrose intake measurement. Format: in vivo, rat. The following applies: CUMS model rats, 21 consecutive days; low dose of Embodiment 1 (15 mg/kg/d) or positive group; vs control P<0.01. An excerpt: (§1) The inventor conducted animal behavior experiments, including the tail-hang experiment on mice, the forced-swim experiment on rats, the forced-swim experiment on mice, the unpredictable long-term stimulus experiment on rats, the olfactory bulb lesion experiment on rats and others, according to the pathogenetic mechanism and clinical symptoms of depression. 1.2 The pharmaceutical composition of Embodiment 1 was intragastrically administered to rats under the chronic unpredictable mild stress (CUMS) model with the dose of 15 mg/kg/d, 30 mg/kg/d and 60 mg/kg/d for 21 consecutive days.

The next data set deals with forced-swim mice. The data set can be described thus: forced-swim experiment on mice. The following applies: intragastric, one week; Embodiment 1 medium dose 40 mg/kg/d, or positive control; vs control P<0.05. The format is in vivo. An excerpt:
(§2) The inventor conducted animal behavior experiments, including the tail-hang experiment on mice, the forced-swim experiment on rats, the forced-swim experiment on mice, the unpredictable long-term stimulus experiment on rats, the olfactory bulb lesion experiment on rats and others, according to the pathogenetic mechanism and clinical symptoms of depression.

The test system of data set [3] is unpredictably long-term stressed rats. Nature of the data set: unpredictable long-term stimulus (CUMS) experiment on rats: jumping test. Format: in vivo, rat. The note with it: CUMS model rats, 21 consecutive days; low dose of Embodiment 1 (15 mg/kg/d) or positive group; vs control P<0.01.
Description: as §1

Data set [4] has the same test system. Nature of the data set: unpredictable long-term stimulus (CUMS) experiment on rats: open field box test. The format is in vivo, rat. The note with it: CUMS model rats, 21 consecutive days; low dose of Embodiment 1 (15 mg/kg/d) or positive group; vs control P<0.01.
Description: as §1

The next data set relates to tail-hanged mice. The data set can be described thus: tail-hang experiment on mice. The format is in vivo. The note with it: intragastric, one week; Embodiment 1 medium dose 40 mg/kg/d, or positive control; vs control P<0.05.
Description: as §2

Another data set relates to forced-swim rats. The data set can be described thus: forced-swim experiment on rats. Format: in vivo, rat. The note with it: intragastric, one week; Embodiment 1 medium dose 30 mg/kg/d, or positive control; vs control P<0.05.
Description: as §2

Data set [5] relates to unpredictably long-term stressed rats. The data set can be described thus: unpredictable long-term stimulus (CUMS) experiment on rats: body weight measurement. The format is in vivo, rat. The following applies: CUMS model rats, 21 consecutive days; low dose of Embodiment 1 (15 mg/kg/d) or positive group; compared to control group.
Description: as §1

The test system of data set [6] is phosphodiesterase 4 (PDE4). The note with it: cited from earlier work.

Structures can show the parent of a compound that is named as a salt.

`Cl.O=C1CC2(CCCC2)CC(=O)N1CCCCN1CCN(c2ncccn2)CC1` [Buspar®]: in the data set with depression patients, the remission rate result was “about 30%”.
Turning to `Br.CN(C)CCCC1(c2ccc(F)cc2)OCc2cc(C#N)ccc21` (stereo not shown) [Celexa®], in the data set with depression patients, the remission rate result is listed as “about 30%”.
Consider `COc1ccc(C(CN(C)C)C2(O)CCCCC2)cc1.Cl` (stereo not shown) [Effexor®], for which the remission rate result in the data set with depression patients is given as “about 30%”.
For the compound `Fc1ccc([C@@H]2CCNC[C@H]2COc2ccc3c(c2)OCO3)cc1` [Paroxetine, Paroxetine hydrochloride], the “initiation of the cAMP-PKA-CREB (p-CREB) pathway” value with cAMP is given as “cannot initiate”. The “decrease of the horizontal movement and vertical movement caused by the olfactory bulb lesion (open field box test)” value in data set [1] was “significantly improved”. Further, the sucrose consumption result in data set [2] was “significantly increased”. For the same compound, in the data set on forced-swim mice, the “non-movement time for the forced-swim mice” value is recorded as “significantly shorter”. The “number of errors in rat jumping trial” value in data set [3] was “significantly decreased”. For the same compound, in data set [4], the “horizontal movement and vertical movement” value is listed as “significantly increased”. The “non-movement time for the tail-hanged mice” value with tail-hanged mice is recorded as “significantly shorter”. Also, in the data set on forced-swim rats, the “non-movement time for the forced-swim rats” value was “significantly shorter”. Further, the body weight gains result in data set [5] is “significantly increased”.
Turning to `COc1ccc(C2CNC(=O)C2)cc1OC1CCCC1` (stereo not shown) [Rolipram®], the side effects result in [6] (background statement) is “severe emesis”. In addition, the anti-depression effect result in [6] (experimental results referred to in background) is given as “significant anti-depression effect”.
As for `CC(NC(C)(C)C)C(=O)c1cccc(Cl)c1.Cl` (stereo not shown) [Wellbutrin®], in the data set with depression patients, the remission rate result is given as “about 30%”.
Turning to `CN[C@H]1CC[C@@H](c2ccc(Cl)c(Cl)c2)c2ccccc21.Cl` [Zoloft®], in the data set on depression patients, the remission rate result was “about 30%”.
